Data on 17 compounds can be found in PubChem BioAssay (NCI).

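Results reflect a 48-hour exposure of cells in 96-well plates to compound at five concentrations. Here, GI50 denotes the concentration required for 50% inhibition of growth. TGI denotes the concentration required for complete inhibition of growth.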

What all share (assay): growth of human tumour cells (NCI), 48 h
The test system of experiment [1] is SK-OV-3 ovarian.
For experiment [2], the system named is CCRF-CEM leukemia.
Experiment [3] deals with HCT-15 colon.
Experiment [4] relates to SR leukemia.
Experiment [5] deals with UACC-62 melanoma.
Experiment [6] deals with SF-295 CNS.
Experiment [7] concerns HOP-92 NSCLC.
Experiment [8] relates to KM12 colon.
The subject of experiment [9] is RPMI-8226 leukemia.
The subject of experiment [10] is MALME-3M melanoma.

For the compound `O=c1c2c3c(sc2nc2n1N=C(c1ccc([N+](=O)[O-])cc1)CS2)CCCC3`, the TGI in experiment [1], in experiment [2], in experiment [3], in experiment [4], in experiment [5] and in [6] was more than 100 µM in each case. Also, the TGI in [7], in [8], in experiment [9] and in [10] was more than 100 µM in each case.

On to `CCCCS(=O)CC(CO)NC(=O)/C=C/c1c(C)[nH]c(=O)[nH]c1=O` (centres undefined), for which the TGI was 65.3 µM in experiment [1]; 51 µM in experiment [2]; 183 µM in [3]; 32 µM in experiment [5]; 38.8 µM in experiment [6]; 101 µM in experiment [7]. Besides, the TGI in experiment [8] worked out at 49.7 µM; in experiment [9], 59.2 µM; in experiment [10], 14.6 µM.

Regarding `Nc1ccc(OCCCc2c(-c3ccccc3)nc(N)[nH]c2=O)cc1`, the TGI was more than 100 µM in experiment [1]; more than 100 µM in experiment [2]; more than 100 µM in experiment [3]; more than 100 µM in experiment [4]; 43 µM in experiment [5]; more than 100 µM in experiment [6]. For the same compound, the TGI in experiment [8], in [9] and in [10] was more than 100 µM each time.

`O=C1CSC(C(N=Nc2ccc(Cl)cc2)c2nc3ccccc3[nH]2)=N1` (centres undefined): the TGI in experiment [1], in experiment [2], in experiment [3], in experiment [4], in experiment [5] and in experiment [6] was more than 100 µM throughout. Also, the TGI in experiment [7], in [8], in [9] and in experiment [10] was more than 100 µM in each case.

Regarding `CC1=C/C(=C2/N=C(N(C)C)SS2)C(C)=N1`, the TGI in experiment [1], in experiment [3], in experiment [4], in [6], in experiment [7] and in experiment [8] was more than 100 µM throughout. Further, the TGI in experiment [9] and in experiment [10] was more than 100 µM in each case.

As for `Cc1cccc(C(=O)O)c1CC1NCCC2c3ccccc3NC12` (centres undefined), the TGI in experiment [1], in experiment [2], in experiment [3], in experiment [4], in [5] and in experiment [6] was more than 100 µM in each case. Besides, the TGI in experiment [7], in experiment [8], in experiment [9] and in experiment [10] was more than 100 µM throughout.

As to `Cc1nc2cccc([N+](=O)[O-])c2n1CCCN(C)C`, the TGI in [1], in experiment [2], in experiment [3], in experiment [4], in [5] and in [6] was more than 100 µM throughout. Further, the TGI in [8], in experiment [9] and in [10] was more than 100 µM in each case.

As to `C[N+](C)(C)C(C1=CCCC1=O)c1ccccc1` (centres undefined), the TGI was more than 100 µM in [1]; more than 100 µM in experiment [2]; 41.5 µM in [3]; 44.5 µM in experiment [4]; 38.8 µM in [5]; more than 100 µM in experiment [6]. For the same compound, the TGI in [7] turned out to be 85.3 µM; in experiment [8], 49.1 µM; in experiment [9] it was 44.2 µM; in [10], 41 µM.

Take `CNc1nc2c(C)ccc3[nH]c(N(C)C)nc3c-2n1`: the TGI in [1] was more than 100 µM; in experiment [2] it was more than 100 µM; in experiment [3] it was more than 100 µM; in [4], 97.9 µM; in experiment [5], more than 100 µM; in [6], more than 100 µM. Besides, the TGI was more than 100 µM in experiment [7], more than 100 µM in [8], 61.2 µM in [9] and 95.6 µM in experiment [10].

For the compound `CN=C(NC)N(C)c1nc(=[N+](C)C)ss1`, the TGI in experiment [1], in [2], in experiment [3], in experiment [4], in experiment [5] and in [6] was more than 100 µM in each case. The TGI in experiment [7] and in experiment [8] was more than 100 µM each time.

For the compound `Cc1cc2c(C(C)C)c(O)c(O)c(C=Nc3ccccc3)c2c(O)c1-c1c(C)cc2c(C(C)C)c(O)c(O)c(C=Nc3ccccc3)c2c1O`, the TGI in experiment [1], in [2], in [3], in experiment [4], in experiment [5] and in [6] was more than 100 µM each time. Moreover, the TGI in experiment [7], in experiment [8], in experiment [9] and in [10] was more than 100 µM throughout.

With `O=C1CCCN1CCCN=c1cc2n(-c3ccc(Cl)cc3)c3ccccc3nc-2cc1Nc1ccc(Cl)cc1`, the TGI worked out at 80.7 µM in experiment [1]; 50.3 µM in experiment [2]; 20 µM in experiment [3]; 26.2 µM in experiment [5]; 40.7 µM in [6]; 40.6 µM in experiment [7]. Besides, the TGI in experiment [8] was found to be 28.7 µM; in experiment [9], 28.1 µM; in experiment [10], 38.3 µM.

Consider `CCc1c(C)c2ccc(OCC(=O)N=Nc3c(O)[nH]c4ccccc34)c(C)c2oc1=O`, for which the GI50 was 1.34 µM in experiment [2], 1.2 µM in [4], 0.69 µM in experiment [7] and 0.936 µM in experiment [9]. Further, the TGI in experiment [2] was more than 33.3 µM; in experiment [4], more than 33.3 µM; in experiment [5], more than 33.3 µM; in experiment [7], 1.56 µM; in experiment [9], 2.27 µM.

For `COC(=O)C1C(O)C(C)C(O)OC1C(C)C(O)C(C)/C=C\C=C(/C)C(=O)Nc1c(C)c(OC(C)=O)c2c(c1O)C(=O)C(C)=C1OCOC(/C(C)=C/C(C)=O)=C12` (centres undefined), the TGI in [1] turned out to be 40.2 µM; in experiment [2], 34.4 µM; in experiment [3], 29 µM; in experiment [5], 31.1 µM; in experiment [6] it was 26 µM; in experiment [7], 22.3 µM. Besides, the TGI in experiment [8] was found to be 26.5 µM; in [9] it was 28.2 µM; in [10], 24.8 µM.

Consider `CC(C)[C@](O)(C(=O)OCC1=CCN2CC[C@@H](O)[C@@H]12)[C@H](C)O`, for which the TGI in experiment [1], in experiment [2], in experiment [3], in experiment [5], in experiment [6] and in [7] was more than 375 µM each time. Also, the TGI in experiment [8], in [9] and in [10] was more than 375 µM in each case.

For the compound `C[C@]12CCc3sc(-c4cccc(F)c4)nc3C1=CC[C@@H]1[C@@H]2CC[C@]2(C)C(=O)CC[C@@H]12`, the GI50 in experiment [1] was 2.91 µM; in [2], 2.45 µM; in [3], 1.56 µM; in experiment [4], 2.62 µM; in experiment [5], 1.9 µM; in experiment [6], 1.59 µM. Besides, the GI50 in experiment [7] was 2.44 µM; in experiment [8], 3.34 µM; in experiment [9] it was 1.91 µM; in experiment [10], 1.8 µM. The TGI in experiment [1] is 9.13 µM; in [2], 9.58 µM; in experiment [3], 4.17 µM; in experiment [4], 10.5 µM; in experiment [5], 5.7 µM; in experiment [6] it was 4.91 µM. Also, the TGI in experiment [7] was 5.63 µM; in [8] it was 17.6 µM; in experiment [9], 5.65 µM; in [10], 4.13 µM.

As for `CCN(CC)CCNC(=O)c1nn(-c2ccc(Cl)cc2)c2c1CCc1cc(OC)ccc1-2`, the TGI stood at 27.5 µM in [1]; 20.1 µM in [2]; 7.81 µM in experiment [3]; 22 µM in [4]; 7.58 µM in [5]; 7.37 µM in experiment [6]. Also, the TGI in experiment [7] is 15.8 µM; in experiment [8], 19.5 µM; in experiment [9], 8.72 µM; in [10] it was 2.95 µM.
